Results from patent US4262127A, “3-Alkoxy-2-alkylisothiazolium salts and their derivatives” (Givaudan Corporation, priority 1979, dated 1981).
Read-outs that look alike come from different tables or passages of the source.

System: Pseudomonas aeruginosa
Assay: prevention of microbial growth in cutting oil emulsions (Kutwell 30)
Format: cell-based
Settings: 3.3% cutting oil emulsion (Kutwell 30), 28° C., read-out: concentration required to prevent microbial growth
Protocol: In running these tests, two-fold serial dilutions of 6% solutions of the compound in dimethylformamide was added to 3.3% cutting oil emulsions. The emulsions were prepared by diluting with water a commercially available cutting oil concentrate. The emulsions were inoculated with a culture of Pseudomonas aeruginosa and incubated at 28° C. on a rotary shaker. At weekly intervals, the emulsions were examined for bacteria by conventional streakplate methods. The emulsions were then reinoculated with Pseudomonas aeruginosa and reincubated.

[1] = 168 h, incubation period 1 week
[2] = 336 h, incubation period 2 weeks, reinoculated weekly
[3] = 504 h, incubation period 3 weeks, reinoculated weekly
[4] = 672 h, incubation period 4 weeks, reinoculated weekly

Compound	MIC [1] [µg/mL]	MIC [2] [µg/mL]	MIC [3] [µg/mL]	MIC [4] [µg/mL]
C=CCOc1ccs[n+]1C	< 32	< 32	32	32
COc1ccs[n+]1C	32	64	64	64
C[n+]1sccc1OCc1ccccc1	< 32	< 32	< 32	< 32
COc1c(Br)cs[n+]1C	< 32	32	32	32
